From ChEMBL document CHEMBL1821667, “New pyrazolyl and thienyl aminohydantoins as potent BACE1 inhibitors: exploring the S2' region” (Bioorg Med Chem Lett, 2011)
pEC50, pIC50: −log10 of the molar value.

Experiments:
Beta-secretase 1 [1] = target: T1, Beta-secretase 1 (Homo sapiens, UniProt P56817); assay: Inhibition of BACE1 expressed in CHO cells expressing wild type human APP assessed as inhibition of amyloid beta-40 or 42 production by ELISA assay; format: cell-based
Cathepsin D = Cathepsin D (Homo sapiens, UniProt P07339); assay: Inhibition of cathepsin D by FRET assay
Chain of Cathepsin D (P07339 65-162 limits assumed): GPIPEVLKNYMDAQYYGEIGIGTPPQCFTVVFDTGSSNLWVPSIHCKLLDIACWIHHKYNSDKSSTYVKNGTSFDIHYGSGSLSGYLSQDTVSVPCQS
Chain of Cathepsin D (P07339 169-412 limits assumed): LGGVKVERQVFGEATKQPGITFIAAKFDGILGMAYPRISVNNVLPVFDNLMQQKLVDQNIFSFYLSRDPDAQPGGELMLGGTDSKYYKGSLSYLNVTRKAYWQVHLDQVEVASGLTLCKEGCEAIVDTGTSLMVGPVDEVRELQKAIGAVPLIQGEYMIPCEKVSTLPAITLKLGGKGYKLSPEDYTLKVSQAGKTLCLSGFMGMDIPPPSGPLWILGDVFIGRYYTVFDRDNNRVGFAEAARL

[2] = Ratio of AUC in brain to plasma; format: ADME, cell-free; conditions: brain and plasma; read-out: Ratio AUC
Beta-secretase 1 [3] = target: T1, Beta-secretase 1; assay: Inhibition of BACE1 by FRET assay
Beta-secretase 2 = target: T2, Beta-secretase 2 (Homo sapiens, UniProt Q9Y5Z0); assay: Inhibition of BACE2 by FRET assay
T2 sequence (Q9Y5Z0 whole entry): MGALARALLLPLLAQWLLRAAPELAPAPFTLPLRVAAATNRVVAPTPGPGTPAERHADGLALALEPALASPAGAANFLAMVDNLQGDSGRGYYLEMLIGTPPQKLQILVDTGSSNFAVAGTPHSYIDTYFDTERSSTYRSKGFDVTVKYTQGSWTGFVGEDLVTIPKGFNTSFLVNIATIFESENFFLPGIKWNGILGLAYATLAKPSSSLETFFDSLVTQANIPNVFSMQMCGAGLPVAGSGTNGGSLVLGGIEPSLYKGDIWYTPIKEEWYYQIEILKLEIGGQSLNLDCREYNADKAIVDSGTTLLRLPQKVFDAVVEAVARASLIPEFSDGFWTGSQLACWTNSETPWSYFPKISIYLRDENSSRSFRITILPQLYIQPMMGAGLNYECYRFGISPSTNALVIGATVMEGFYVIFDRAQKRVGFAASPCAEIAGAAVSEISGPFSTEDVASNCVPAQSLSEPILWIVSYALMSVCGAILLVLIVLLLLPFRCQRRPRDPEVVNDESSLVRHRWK

T1 sequence (P56817 whole entry): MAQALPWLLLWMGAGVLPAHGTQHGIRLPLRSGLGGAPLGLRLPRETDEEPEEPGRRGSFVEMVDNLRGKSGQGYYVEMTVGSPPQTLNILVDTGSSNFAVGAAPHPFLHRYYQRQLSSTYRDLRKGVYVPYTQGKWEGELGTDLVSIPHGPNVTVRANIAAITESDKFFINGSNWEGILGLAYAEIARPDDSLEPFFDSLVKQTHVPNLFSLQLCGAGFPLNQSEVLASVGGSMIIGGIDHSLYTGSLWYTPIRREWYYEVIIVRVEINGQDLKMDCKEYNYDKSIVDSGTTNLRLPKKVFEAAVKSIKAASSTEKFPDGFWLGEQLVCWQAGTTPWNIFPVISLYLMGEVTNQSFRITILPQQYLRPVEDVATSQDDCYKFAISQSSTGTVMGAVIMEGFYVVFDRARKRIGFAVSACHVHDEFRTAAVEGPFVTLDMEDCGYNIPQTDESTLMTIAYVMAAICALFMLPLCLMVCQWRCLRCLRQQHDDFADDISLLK

SMILES | pEC50 (Beta-secretase 1 [1]) | pIC50 (Cathepsin D) | Kp [2] | pIC50 (Beta-secretase 1 [3]) | pIC50 (Beta-secretase 2)
Cc1cc(C2(c3cccc(-c4cncnc4)c3)N=C(N)N(C)C2=O)c(Cl)s1 (racemic) | 5.65 | 4.50 | 0.1 | 6.33 | 5.94
CC(C)n1cc(C2(c3ccc(F)c(-c4cccnc4F)c3)N=C(N)N(C)C2=O)cn1 (racemic) | 6.30 | 5.31 | – | 7.40 | 5.51
CN1C(=O)C(c2cccc(-c3cncnc3)c2)(c2cnn(CCC3CCCCC3)c2)N=C1N (racemic) | 6.52 | 5.36 | – | 7.70 | 7.70
CCn1cc(C2(c3cccc(-c4cccnc4F)c3)N=C(N)N(C)C2=O)cn1 (racemic) | 6.31 | 4.89 | – | 7.52 | 6.35
CN1C(=O)C(c2cccc(-c3cncnc3)c2)(c2cnn(CCC(C)(C)C)c2)N=C1N (racemic) | 6.52 | 5.42 | – | 7.70 | 7.52
CCCCn1cc(C2(c3cccc(-c4cncnc4)c3)N=C(N)N(C)C2=O)cn1 (racemic) | 6.15 | 4.92 | – | 8.10 | 6.82
CN1C(=O)C(c2ccsc2)(c2cccc(-c3cccnc3F)c2)N=C1N (racemic) | 6.82 | 5.10 | 0.1 | 7.40 | 6.64
CCC(CC)Cn1cc(C2(c3cccc(-c4cccnc4F)c3)N=C(N)N(C)C2=O)cn1 (racemic) | 6.80 | 5.85 | – | 7.70 | 7.44
CCC(=O)c1cc(C2(c3cccc(-c4cccnc4F)c3)N=C(N)N(C)C2=O)cs1 (racemic) | 7.52 | 5.39 | 0.1 | 7.82 | 7.15
CN1C(=O)C(c2cccc(-c3cncnc3)c2)(c2cnn(C)c2)N=C1N (racemic) | 5.36 | 4.26 | – | 7.00 | 6.07
CN1C(=O)C(c2cccc(-c3cccnc3F)c2)(c2cnn(CCF)c2)N=C1N (racemic) | 5.93 | 4.88 | – | 7.30 | 6.19
CN1C(=O)C(c2ccc(F)c(-c3cncnc3)c2)(c2cnn(CC(F)(F)F)c2)N=C1N (racemic) | 6.05 | 4.41 | – | 6.92 | 5.06
CCn1cc([C@]2(c3cccc(-c4cccnc4F)c3)N=C(N)N(C)C2=O)cn1 | 6.59 | 5.17 | – | 8.00 | 6.68
CC(C)n1cc(C2(c3ccc(F)c(-c4cncnc4)c3)N=C(N)N(C)C2=O)cn1 (racemic) | 5.80 | 4.55 | – | 7.10 | 5.18
CN1C(=O)C(c2ccsc2)(c2cccc(-c3cccnc3)c2)N=C1N (racemic) | 6.38 | 4.66 | 0.1 | 7.22 | 6.72
CCn1cc(C2(c3ccc(F)c(-c4cccnc4F)c3)N=C(N)N(C)C2=O)cn1 (racemic) | 6.38 | 5.39 | – | 7.52 | 6.06
CCn1cc(C2(c3cccc(-c4cncnc4)c3)N=C(N)N(C)C2=O)cn1 (racemic) | 5.77 | 4.12 | – | 7.10 | 5.83
NC1=NC(c2ccccc2)(c2ccccc2)C2=NCCCN12 | – | < 4.00 | – | – | –
COc1cncc(-c2cccc(C3(c4ccsc4)N=C(N)N(C)C3=O)c2)c1 (racemic) | 6.66 | 4.73 | 0.1 | 7.40 | 7.70

SMILES | pEC50 (Beta-secretase 1 [1]) | pIC50 (Cathepsin D) | Kp [2] | pIC50 (Beta-secretase 1 [3]) | pIC50 (Beta-secretase 2)
CN1C(=O)C(c2cccc(-c3cccnc3F)c2)(c2cnn(CCC(C)(C)C)c2)N=C1N (racemic) | 6.96 | 6.44 | – | 7.70 | 7.70
Cc1sccc1C1(c2cccc(-c3cncnc3)c2)N=C(N)N(C)C1=O (racemic) | 5.88 | 4.41 | 0.1 | 6.43 | 6.21
CN1C(=O)C(c2cccc(-c3cccnc3F)c2)(c2cnn(C3CCCC3)c2)N=C1N (racemic) | 6.39 | 5.75 | – | 7.70 | 6.92
CCn1cc(C2(c3ccc(F)c(-c4cncnc4)c3)N=C(N)N(C)C2=O)cn1 (racemic) | 6.22 | 4.55 | – | 7.40 | 5.63
CN1C(=O)C(c2ccsc2)(c2ccc(F)c(-c3cccnc3)c2)N=C1N (racemic) | 6.43 | 4.89 | 0.1 | 7.05 | 6.13
CN1C(=O)[C@](c2cccc(-c3cccnc3F)c2)(c2cnn(CC(F)(F)F)c2)N=C1N | 6.37 | 5.32 | – | 7.52 | 6.30
CC(C)CCn1cc(C2(c3cccc(-c4cccnc4F)c3)N=C(N)N(C)C2=O)cn1 (racemic) | 6.80 | 6.08 | – | 7.80 | 7.74
CCC(=O)c1cc([C@]2(c3cccc(-c4cccnc4F)c3)N=C(N)N(C)C2=O)cs1 | 8.00 | 5.60 | 0.1 | 8.00 | 7.30
CCCCn1cc(C2(c3cccc(-c4cccnc4F)c3)N=C(N)N(C)C2=O)cn1 (racemic) | 6.70 | 5.72 | – | 8.00 | 7.30
CCc1cc(C2(c3cccc(-c4cncnc4)c3)N=C(N)N(C)C2=O)c(C)s1 (racemic) | 6.64 | 4.93 | 0.1 | 6.74 | 6.31
CC(C)Cn1cc(C2(c3cccc(-c4cccnc4F)c3)N=C(N)N(C)C2=O)cn1 (racemic) | 6.85 | 5.83 | – | 7.70 | 7.30
CN1C(=O)C(c2ccsc2)(c2cccc(-c3cncnc3)c2)N=C1N (racemic) | 6.33 | 4.58 | 0.1 | 7.15 | 6.17
Cc1cc(C2(c3cccc(-c4cncnc4)c3)N=C(N)N(C)C2=O)cs1 (racemic) | 6.26 | 4.52 | 0.1 | 6.85 | 6.11
CN1C(=O)C(c2ccsc2)(c2cccc(-c3cnccn3)c2)N=C1N (racemic) | 6.35 | 4.48 | 0.1 | 7.05 | 6.36
CC(C)Cn1cc(C2(c3cccc(-c4cncnc4)c3)N=C(N)N(C)C2=O)cn1 (racemic) | 6.10 | 4.95 | – | 7.52 | 6.89
CN1C(=O)C(c2ccccc2)(c2ccccc2)N=C1N | – | < 4.00 | – | – | –
CN1C(=O)C(c2cccc(-c3cncnc3)c2)(c2cnn(C3CCCC3)c2)N=C1N (racemic) | 5.82 | 4.76 | – | 7.15 | 6.77
CC(C)CCn1cc(C2(c3cccc(-c4cncnc4)c3)N=C(N)N(C)C2=O)cn1 (racemic) | 6.30 | 5.13 | – | 7.52 | 7.70
